Patent US11802135B2, “Lysophosphatidic acid derivative” (MITSUBISHI TANABE PHARMA CORPORATION, priority 2021, dated 2023)
Counter-ions that a name gives are not always drawn. Like-named read-outs stand apart in the source and are kept apart here.

What was measured:
human LPA1 receptor = target: T1, human LPA1 receptor (Homo sapiens, UniProt Q92633); assay: LPA1/SRE-luc reporter assay in RH7777 cells stably expressing human LPA1 receptor and SRE-Luc2; format: cell-based; details: read-out: LPA1/SRE-luc EC50
T1 construct: expressed in transfected cells; host or cells: rat hepatocellular carcinoma cell line RH7777 (made 'similarly' to the LPA4 line)
Experimental: (§1) A stably expressing cell line that constantly expresses the human LPA4 receptor and SRE-Luc2 was established by the gene targeting introduction method of the rat hepatocellular carcinoma cell line RH7777 into rRosa26 site. Similarly, stably expressing cell lines for human LPA1 receptor and SRE-Luc2 were also established. Each cell line was seeded on a collagen-coated dish and maintained in culture, and cells were collected with trypsin EDTA and the required number (5×10^3 cells/well) was seeded on a 96-well plate. After culturing overnight at 37° C., LPA (Avanti Polar Lipids, Inc.) or each Example compound diluted with an assay medium added or not added with BSA was added, and the cells were cultured at 37° C. for 6 hr. Thereafter, a luciferase detection reagent (Bright-Glo, Promega) was added, and the chemiluminescence amount was quantified with an Envision (registered trade mark) multi-label counter (PerkinElmer) and used as an index of agonist activity.
(§2) The EC50 value of LPA or each Example compound was calculated using the […] Graph pad Prism for Windows ver.5.02 and ver.7.04. % Emax was expressed as the ratio of the maximum response (Emax) of LPA or each Example compound to the maximum response (Emax) of the positive control compound VPC 31144S (N-{(1S)-2-hydroxy-1-[(phosphonooxy)methyl]ethyl}(9Z) cctadec-9-enamide), with the Emax of the positive control compound VPC 31144S as 100%.

human LPA4 receptor = target: T2, human LPA4 receptor (Homo sapiens, UniProt Q99677); assay: LPA4/SRE-luc reporter assay in RH7777 cells stably expressing human LPA4 receptor and SRE-Luc2; format: cell-based; details: for EC50: read-out: LPA4/SRE-luc EC50
T2 construct: expressed in transfected cells; host or cells: rat hepatocellular carcinoma cell line RH7777, targeted integration at the rRosa26 site
Experimental: as §1, §2

[1] = RH7777, BSA not added, Emax of positive control VPC 31144S as 100%, read-out: LPA4/SRE-luc % Emax
[2] = RH7777, read-out: LPA4/SRE-luc % Emax
[3] = RH7777, BSA added, Emax of positive control VPC 31144S as 100%, read-out: LPA4/SRE-luc % Emax

T1 sequence (Q92633 whole entry): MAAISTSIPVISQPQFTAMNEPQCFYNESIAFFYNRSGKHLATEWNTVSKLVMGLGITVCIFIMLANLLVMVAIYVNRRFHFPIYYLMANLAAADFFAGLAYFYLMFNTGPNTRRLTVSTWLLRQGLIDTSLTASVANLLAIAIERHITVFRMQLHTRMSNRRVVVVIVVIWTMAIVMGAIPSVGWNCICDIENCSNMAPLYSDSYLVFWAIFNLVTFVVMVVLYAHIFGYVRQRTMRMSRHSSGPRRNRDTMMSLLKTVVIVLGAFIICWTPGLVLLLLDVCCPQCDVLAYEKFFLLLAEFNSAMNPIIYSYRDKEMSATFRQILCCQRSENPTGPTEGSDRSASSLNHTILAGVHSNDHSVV
T2 sequence (Q99677 whole entry): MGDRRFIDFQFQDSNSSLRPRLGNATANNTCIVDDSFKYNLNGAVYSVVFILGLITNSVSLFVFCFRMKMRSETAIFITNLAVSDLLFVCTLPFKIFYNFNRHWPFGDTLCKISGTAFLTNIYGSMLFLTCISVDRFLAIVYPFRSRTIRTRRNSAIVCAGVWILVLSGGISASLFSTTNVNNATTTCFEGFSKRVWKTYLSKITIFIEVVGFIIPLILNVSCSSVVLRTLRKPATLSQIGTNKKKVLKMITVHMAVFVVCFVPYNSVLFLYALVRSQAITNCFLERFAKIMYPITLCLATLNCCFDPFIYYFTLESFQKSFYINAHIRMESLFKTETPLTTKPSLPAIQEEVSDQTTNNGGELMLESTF

EC50 (human LPA1 receptor; BSA not added) [nM] | EC50 (human LPA4 receptor; BSA not added) [nM] | Emax (human LPA4 receptor; [1]) [%] | EC50 (human LPA1 receptor; BSA added) [nM] | EC50 (human LPA4 receptor; BSA added) [nM] | Emax (human LPA4 receptor; [3]) [%] | Structure (SMILES) | Emax (human LPA4 receptor; [2]) [%]
> 10000 | 28 | 119 | – | – | – | CCCCCCCCCOc1ccc(CCC(=O)N2CC(OP(=O)(O)O)C2)cc1 [Example 1, 1-{3-[4-(Nonyloxy)phenyl]propanoyl}azetidin-3-yl dihydrogen phosphate ammonium salt] | –
> 10000 | 1.9 | 122 | – | – | – | CCCCCCCCCCOc1cccc(CCC(=O)N2CC[C@@H](OP(=O)(O)O)C2)c1 [Example 18, (3R)-1-{3-[3-(Decyloxy)phenyl]propanoyl}pyrrolidin-3-yl dihydrogen phosphate ammonium salt] | –
> 10000 | 20 | 153 | – | – | – | CCCCCCCCCOc1ccc(CCC(=O)N2CC[C@@H](OP(=O)(O)O)C2)cc1 [Example 20, (3R)-1-{3-[4-(Nonyloxy)phenyl]propanoyl}pyrrolidin-3-yl dihydrogen phosphate ammonium salt] | –
> 10000 | 5.6 | 138 | – | – | – | CCc1ccc(CCCCCCCCC(=O)N2CC[C@@H](OP(=O)(O)O)C2)cc1 [Example 24, (3R)-1-[9-(4-Ethylphenyl)nonanoyl]pyrrolidin-3-yl dihydrogen phosphate ammonium salt] | –
> 10000 | 33 | 121 | – | – | – | CCCCCCCCCCOc1cccc(CCC(=O)N(CCOP(=O)(O)O)CC(C)C)c1 [Example 33, 2-[{3-[3-(Decyloxy)phenyl]propanoyl}(2-methylpropyl)amino]ethyl dihydrogen phosphate ammonium salt] | –
> 10000 | 27 | 86 | – | – | – | CCCCCCCCc1cccc(CCCCCCCC(=O)N2CC(OP(=O)(O)O)C2)c1 [Example compound 43, 1-[8-(3-Octylphenyl)octanoyl]azetidin-3-yl dihydrogen phosphate ammonium salt] | –
> 10000 | 46 | 94 | – | – | – | CCCCCCCCCCOc1cccc(CCC(=O)N(CCCCOC)CCOP(=O)(O)O)c1 [Example compound 47, 2-[{3-[3-(Decyloxy)phenyl]propanoyl}(4-methoxybutyl)amino]ethyl dihydrogen phosphate ammonium salt] | –
> 1000 | 23 | 79 | – | – | – | CCCCCCCCCCOc1cccc(CCC(=O)N(CCCCCO)CCOP(=O)(O)O)c1 [Example compound 50, 2-[{3-[3-(Decyloxy)phenyl]propanoyl}(5-hydroxypentyl)amino]ethyl dihydrogen phosphate ammonium salt] | –
> 10000 | < 41 | 86 | – | – | – | CCCCCCCc1ccc(CCCCC(=O)N2CC(OP(=O)(O)O)C2)cc1 [Example compound 59, 1-[5-(4-Heptylphenyl)pentanoyl]azetidin-3-yl dihydrogen phosphate ammonium salt] | –

Further lines, the compound ahead of its results:

Structure (SMILES) | EC50 (human LPA1 receptor; BSA not added) [nM] | EC50 (human LPA4 receptor; BSA not added) [nM] | Emax (human LPA4 receptor; [1]) [%] | EC50 (human LPA1 receptor; BSA added) [nM] | EC50 (human LPA4 receptor; BSA added) [nM] | Emax (human LPA4 receptor; [3]) [%] | Emax (human LPA4 receptor; [2]) [%]
CCCCCCc1ccc(CCCCC(=O)N2CC(OP(=O)(O)O)C2)cc1 [Example 7, 1-[5-(4-Hexylphenyl)pentanoyl]azetidin-3-yl dihydrogen phosphate] | > 10000 | 37 | 125 | – | – | – | –
Cc1ccc(CCCCCCCCCC(=O)N2CC(OP(=O)(O)O)C2)cc1 [Example 10, 1-[10-(4-Methylphenyl)decanoyl]azetidin-3-yl dihydrogen phosphate] | > 10000 | 30 | – | – | – | – | 101
CCCc1ccc(CCCCCCCC(=O)N2CC(OP(=O)(O)O)C2)cc1 [Example 15, 1-[8-(4-Propylphenyl)octanoyl]azetidin-3-yl dihydrogen phosphate] | > 10000 | 42 | 75 | – | – | – | –
CCCCCCCCOc1ccc(CCCC(=O)N2CC(OP(=O)(O)O)C2)cc1 [Example 26, 1-{4-[4-(Octyloxy)phenyl]butanoyl}azetidin-3-yl dihydrogen phosphate] | > 10000 | 10 | – | – | – | – | 125
Cc1ccc(CCc2ccc(CCCC(=O)N3CC[C@@H](OP(=O)(O)O)C3)cc2)cc1 [Example 29, (3R)-1-(4-{4-[2-(4-Methylphenyl)ethyl]phenyl}butanoyl)pyrrolidin-3-yl dihydrogen phosphate ammonium salt] | > 10000 | 45 | 145 | – | – | – | –
CCCCCCCCCCOc1cccc(CCC(=O)N(CCOP(=O)(O)O)Cc2ccc(OC)cc2)c1 [Example compound 54, 2-[{3-[3-(Decyloxy)phenyl]propanoyl}(4-methoxybenzyl)amino]ethyl dihydrogen phosphate ammonium salt] | > 10000 | < 41 | 106 | – | – | – | –
CCCCCCCCCCOc1cccc(CCC(=O)N(CCOP(=O)(O)O)Cc2ccncc2)c1 [Example compound 58, 2-[{3-[3-(Decyloxy)phenyl]propanoyl}(pyridin-4-ylmethyl)amino]ethyl dihydrogen phosphate ammonium salt] | > 3000 | < 41 | 148 | – | – | – | –
CC(C)c1ccc(CCCCCCCCC(=O)N2CC(OP(=O)(O)O)C2)cc1 [Example compound 66, 1 {9-[4-(Propan-2-yl)phenyl]nonanoyl}azetidin-3-yl dihydrogen phosphate] | > 10000 | < 41 | 280 | – | – | – | –
O=C(CCCCCCCCc1ccc(C2CC2)cc1)N1CC(OP(=O)(O)O)C1 [Example compound 87, 1-[9-(4-Cyclopropylphenyl)nonanoyl]azetidin-3-yl dihydrogen phosphate ammonium salt] | – | – | – | > 10000 | 50 | 97 | –
O=C(CCCCc1cccc(OCCCCC2CCCCC2)c1)N1CC(OP(=O)(O)O)C1 [Example compound 88, 1-{5-[3-(4-Cyclohexylbutoxy)phenyl]pentanoyl}azetidinyl dihydrogen phosphate ammonium salt] | – | – | – | > 10000 | 20 | 152 | –
O=C(CCCCCCCCc1ccc(C2CCCCC2)cc1)N1CC(OP(=O)(O)O)C1 [Example compound 93, 1-[9-(4-Cyclohexylphenyl)nonanoyl]azetidin-3-yl dihydrogen phosphate] | – | – | – | > 10000 | < 41 | 113 | –
CCCCCCCCCCOc1cccc(CCC(=O)N(CCOP(=O)(O)O)Cc2cccc(OC)c2)c1 [Example compound 95, 2-[{3-[3-(Decyloxy)phenyl]propanoyl}(3-methoxybenzyl)amino]ethyl dihydrogen phosphate ammonium salt] | – | – | – | > 10000 | < 41 | 136 | –
CCCCCCCc1ccc(CCCCC(=O)N2CC(OP(=O)(O)O)C2)c(C(F)(F)F)c1 [Example compound 100, 1-{5-[4-Heptyl-2-(trifluoromethyl)phenyl]pentanoyl}azetidin-3-yl dihydrogen phosphate ammonium salt] | – | – | – | > 10000 | 40 | 108 | –
CCCc1ccc(CCCCCCCCC(=O)N(CCOP(=O)(O)O)Cc2cncs2)cc1 [Example compound 102, 2-{[9-(4-Propylphenyl)nonanoyl] (1,3-thiazol-5-ylmethyl)amino}ethyl dihydrogen phosphate ammonium salt] | – | – | – | > 10000 | 47 | 121 | –
